These results are taken from patent EP1208096B1, “SUBSTITUTED PYRIDAZINES AND FUSED PYRIDAZINES WITH ANGIOGENESIS INHIBITING ACTIVITY” (Bayer Corporation, priority 1999, dated 2001).

Structures can show the parent of a compound that is named as a salt. Where only a bound is given, the exact number is not on record here.

For assay [1], the target named is T1, NIH3T3 cells expressing the full length KDR receptor (Homo sapiens, UniProt P35968).
T1 construct: NIH3T3 cells expressing the full length KDR receptor; expressed in transfected cells; host or cells: NIH3T3 cells (G418 selection)
The assay can be described thus: Cell mechanistic assay - Inhibition of 3T3 KDR phosphorylation. The assay is classed as cell-based. Particulars: VEGF (30 ng / ml) for 10 minutes after 30 minutes with compound; KDR phosphotyrosine ELISA. Here is the method: NIH3T3 cells expressing the full length KDR receptor were grown in DMEM (Life Technologies, Inc., Grand Island, NY) supplemented with 10% newborn calf serum, low glucose, 25 mM /L sodium pyruvate, pyridoxine hydrochloride and 0.2 mg/ ml of G418 (Life Technologies Inc., Grand Island, NY). The cells were maintained in collagen I-coated T75 flasks (Becton Dickinson Labware, Bedford, MA) in a humidified 5% CO2 atmosphere at 37°C.
Fifteen thousand cells were plated into each well of a collagen I-coated 96-well plate in the DMEM growth medium. Six hours later, the cells were washed and the medium was replaced with DMEM without serum. After overnight culture to quiesce the cells, the medium was replaced by Dulbecco's phosphate-buffered saline (Life Technologies Inc., Grand Island, NY) with 0.1% bovine albumin (Sigma Chemical Co., St Louis, MO). After adding various concentrations (0-300 nM) of test compounds to the cells in 1% final concentration of DMSO, the cells were incubated at room temperature for 30 minutes. The cells were then treated with VEGF (30 ng / ml) for 10 minutes at room temperature. Following VEGF stimulation, the buffer was removed and the cells were lysed by addition of 150 µl of extraction buffer (50 mM Tris, pH 7.8, supplemented with 10% glycerol, 50 mM BGP, 2 mM EDTA, 10 mM NaF, 0.5 mM NaVO4, and 0.3% TX-100) at 4°C for 30 minutes.
To assess receptor phosphorylation, 100 microliters of each cell lysate was added to the wells of an ELISA plate precoated with 300 ng of antibody C20 (Santa Cruz Biotechnology, Inc., Santa Cruz , CA). Following a 60-minute incubation, the plate was washed and bound KDR was probed for phosphotyrosine using an anti-phosphotyrosine mAb clone 4G10 (Upstate Biotechnology, Lake Placid, NY). The plate was washed and wells were incubated with anti-mouse IgG/HRP conjugate (Amersham International plc, Buckinghamshire, England) for 60 minutes. Wells were washed and phosphotyrosine was quantitated by addtion of 100 µl per well of 3,3',5,5' tetramethylbenzidine (Kirkegaard and Perry, TMB Microwell 1 Component peroxidase substrate) solution. Color development was arrested by the addition of 100 µl 1% HCl based stop solution (Kirkegaard and Perry, TMB 1 Component Stop Solution).
Optical densities (OD) were determined spectrophotometrically at 450 nm in a 96-well plate reader (SpectraMax 250, Molecular Devices). Background (no VEGF added) OD values were subtracted from all ODs and percent inhibition was calculated according to the equation: % Inhibition =((OD(VEGF control) - OD(with test compound)) X 100)/(OD(VEGF control) - OD(no VEGF added)) [formula]
IC50s were determined with a least squares analysis program using compound concentration versus percent inhibition. Compounds that have IC50 < 20 nM in this assay include those of Examples 2, 6, 7, 11, 15 and 16. Compounds that have IC50 values between 20 nM and 50 nM include those of examples 1, 4, 5, 8, 10, 12, 13 and 14. Those that have measured IC50 values > 50 nM include those of examples 9 and 21.
(ELISA stands for enzyme-linked immunosorbent assay.)

In assay [2] the target is T2, cytosolic kinase domain of KDR kinase (Homo sapiens, UniProt P35968).
T2 construct: The cytosolic kinase domain of KDR kinase was expressed as a 6His fusion protein in Sf9 insect cells; 6His; made in house; host or cells: Sf9 insect cells
The assay can be described thus: KDR Assay (ELISA, phosphorylation of poly(Glu4;Tyr1)). Particulars: 3.3 µM ATP, 60 minutes at room temperature, 30 ng KDR kinase domain. The assay is classed as biochemical. Here is the method: The cytosolic kinase domain of KDR kinase was expressed as a 6His fusion protein in Sf9 insect cells. The KDR kinase domain fusion protein was purified over a Ni^++ chelating column. Ninety-six well ELISA plates were coated with 5 µg poly(Glu4;Tyr1) (Sigma Chemical Co., St Louis, MO) in 100 µl HEPES buffer (20 mM HEPES, pH 7.5, 150 mM NaCl, 0.02% Thimerosal) at 4° overnight. Before use, the plate was washed with HEPES, NaCl buffer and the plates were blocked with 1% BSA, 0.1% Tween 20 in HEPES, NaCl buffer.
Test compounds were serially diluted in 100% DMSO from 4 mM to 0.12 µM in half-log dilutions. These dilutions were further diluted twenty fold in H2O to obtain compound solutions in 5% DMSO. Following loading of the assay plate with 85 µl of assay buffer (20 mM HEPES, pH 7.5, 100 mM KCl, 10 mM MgCl2, 3 mM MnCl2, 0.05% glycerol, 0.005% Triton X-100, 1 mM -mercaptoethanol, with or without 3.3 µM ATP), 5 µl of the diluted compounds were added to a final assay volume of 100 µl. Final concentrations were between 10 µM, and 0.3 nM in 0.25% DMSO. The assay was initiated by the addition of 10µl (30 ng) of KDR kinase domain.
The assay was incubated with test compound or vehicle alone with gentle agitation at room temperature for 60 minutes. The wells were washed and phosphotyrosines (PY) were probed with an anti-phosphotyrosine (PY), mAb clone 4G10 (Upstate Biotechnology, Lake Placid, NY). PY/anti-PY complexes were detected with an anti-mouse IgG/HRP conjugate (Amersham International plc, Buckinghamshire, England). Phosphotyrosine was quantitated by incubating with 100 µl 3, 3', 5, 5' tetramethylbenzidine solution (Kirkegaard and Perry, TMB Microwell 1 Component peroxidase substrate). Color development was arrested by the addition of 100 µl 1% HCl-based stop solution (Kirkegaard and Perry, TMB I Component Stop Solution).
Optical densities were determined spectrophotometrically at 450 nm in a 96-well plate reader, SpectraMax 250 (Molecular Devices). Background (no ATP in assay) OD values were subtracted from all ODs and the percent inhibition was calculated according to the equation: % Inhibition =((OD(vehicle control) - OD(with compound)) X 100)/(OD(vehicle control) - OD(no ATP added)) [formula]
The IC50 values were determined with a least squares analysis program using compound concentration versus percent inhibition. Compounds that have IC50 < 100 nM in this assay include those of Examples 1, 2, 4, 5, 6, 7, 10, 11, 12, 13, 14, 15, 16 and 23. Compounds that have IC50 values between 100 nM and 1,000 nM include those of examples 8, 9 and 22. Those that have measured IC50 values > 1,000 nM include those of examples 3, 17, 18 and 21.

T2 sequence (P35968 834-1162 limits assumed): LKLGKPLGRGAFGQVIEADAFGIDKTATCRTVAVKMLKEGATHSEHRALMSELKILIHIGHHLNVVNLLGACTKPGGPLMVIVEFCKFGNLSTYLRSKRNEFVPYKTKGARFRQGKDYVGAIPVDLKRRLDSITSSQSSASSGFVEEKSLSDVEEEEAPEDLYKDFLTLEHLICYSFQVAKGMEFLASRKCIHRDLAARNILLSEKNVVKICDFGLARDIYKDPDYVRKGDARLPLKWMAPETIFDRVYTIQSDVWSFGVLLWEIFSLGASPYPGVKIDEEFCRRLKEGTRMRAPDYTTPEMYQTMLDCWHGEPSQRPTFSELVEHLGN
T1 sequence (P35968 20-1356): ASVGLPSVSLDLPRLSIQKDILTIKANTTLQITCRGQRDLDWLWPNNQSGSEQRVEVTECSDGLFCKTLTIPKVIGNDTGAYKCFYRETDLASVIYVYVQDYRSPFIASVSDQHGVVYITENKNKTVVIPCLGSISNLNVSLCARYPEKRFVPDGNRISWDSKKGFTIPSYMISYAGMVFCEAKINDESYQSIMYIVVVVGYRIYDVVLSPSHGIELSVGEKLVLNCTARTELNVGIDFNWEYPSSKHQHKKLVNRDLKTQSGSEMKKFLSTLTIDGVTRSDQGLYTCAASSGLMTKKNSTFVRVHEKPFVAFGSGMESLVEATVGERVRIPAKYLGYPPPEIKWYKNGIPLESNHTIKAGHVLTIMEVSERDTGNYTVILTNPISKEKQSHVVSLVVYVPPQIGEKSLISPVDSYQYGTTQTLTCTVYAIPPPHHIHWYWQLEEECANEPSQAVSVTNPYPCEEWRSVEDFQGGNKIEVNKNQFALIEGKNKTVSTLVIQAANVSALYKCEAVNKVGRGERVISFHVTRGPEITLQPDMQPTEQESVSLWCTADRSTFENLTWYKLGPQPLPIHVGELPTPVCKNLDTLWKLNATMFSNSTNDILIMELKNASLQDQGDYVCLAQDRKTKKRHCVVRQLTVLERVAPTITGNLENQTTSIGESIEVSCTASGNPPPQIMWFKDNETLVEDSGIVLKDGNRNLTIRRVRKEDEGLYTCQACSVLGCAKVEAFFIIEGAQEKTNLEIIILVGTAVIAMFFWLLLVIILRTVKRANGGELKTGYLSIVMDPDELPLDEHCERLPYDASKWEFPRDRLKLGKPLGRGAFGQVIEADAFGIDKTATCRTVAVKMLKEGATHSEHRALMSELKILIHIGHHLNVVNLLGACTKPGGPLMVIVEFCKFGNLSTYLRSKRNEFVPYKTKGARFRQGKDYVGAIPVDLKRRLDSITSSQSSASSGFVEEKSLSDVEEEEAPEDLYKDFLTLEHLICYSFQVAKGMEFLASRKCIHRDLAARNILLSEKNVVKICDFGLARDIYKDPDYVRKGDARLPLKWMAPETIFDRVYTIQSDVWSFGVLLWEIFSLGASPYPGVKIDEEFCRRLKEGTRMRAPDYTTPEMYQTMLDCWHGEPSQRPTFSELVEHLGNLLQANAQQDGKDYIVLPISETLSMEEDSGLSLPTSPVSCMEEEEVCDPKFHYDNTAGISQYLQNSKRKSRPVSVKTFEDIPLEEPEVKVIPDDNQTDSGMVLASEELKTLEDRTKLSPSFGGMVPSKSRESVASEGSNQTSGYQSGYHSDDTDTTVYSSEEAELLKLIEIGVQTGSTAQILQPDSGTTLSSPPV

Take `Clc1ccc(Nc2nnc(Cc3ccnc(-c4ccccc4)c3)c3ccccc23)cc1` [Example 8, 1-(4-chlorophenylamino)-4-[(2-phenyl-4-pyridyl)methyl]phthalazine]: the IC50 – broadly, the point on the concentration scale where inhibition reaches its midpoint – lay in the range of 0.02 to 0.05 µM in assay [1] and 0.1 to 1 µM in assay [2].
Consider `Clc1ccc(Nc2nnc(Sc3nnc(-c4ccncc4)[nH]3)c3ccccc23)cc1` [Example 17, 1-(4-chlorophenylamino)-4-[5-(4-pyridyl)-1H-1,2,4-triazolyl-3-ylthio]phthalazine], for which the half-maximal inhibitory concentration (IC50) in assay [2] was over 1 µM.
In the case of `CC(C)c1ccc(Nc2nnc(Sc3nnc(-c4ccncc4)[nH]3)c3ccccc23)cc1` [Example 18, 1-(4-isopropylphenylamino)-4-[5-(4-pyridyl)-1H-1,2,4-triazolyl-3-ylthio]phthalazine], the IC50 in assay [2] is over 1 µM.
For the molecule `CNC(=O)c1cc(COc2nnc(Nc3ccc(Cl)cc3)c3ccccc23)ccn1` [Example 4, 4-[4-(4-Chlorophenylamino)phthalazin-1-yloxymethyl]pyridin-2-yl carboxylic acid methylamide], the 50% inhibitory concentration (IC50) in assay [1] was 0.02 to 0.05 µM; in assay [2] it was under 0.1 µM.
With `CNC(=O)c1cc(Cc2nnc(Nc3ccc(Cl)cc3)c3ccccc23)ccn1` [Example 11, 4-[4-(4-Chlorophenylamino)phthalazin-1-ylmethyl]pyridin-2-yl carboxylic acid methylamide dihydrochloride], the IC50 in assay [1] was under 0.02 µM.
With `Clc1ccc(Nc2nnc(OCc3cccnc3)c3ccccc23)cc1` [Example 3, 1-(4-chlorophenylamino)-4-(3-pyridylmethoxy)phthalazine], in assay [2], the IC50 was over 1 µM.
Regarding `CNC(=O)c1cc(Cc2nnc(Nc3ccc(Cl)cc3)c3ccccc23)ccn1` [Example 12, 4-[4-(4-Chlorophenylamino)phthalazin-1-ylmethyl]pyridin-2-yl carboxylic acid methylamide dimethanesulfonate], the IC50 in assay [1] lay within 0.02 to 0.05 µM.
`NC(=O)c1cc(Cc2nnc(Nc3cccc(Br)c3)c3ccccc23)ccn1` [Example 7, 4-[4-(3-Bromophenylamino)phthalazin-1-ylmethyl]-pyridin-2-yl carboxylic acid amide]: the half-maximal inhibitory concentration (IC50) in assay [1] is under 0.02 µM; in assay [2] it was under 0.1 µM.
As to `NC(=O)c1cc(COc2nnc(Nc3ccc(Cl)cc3)c3ccccc23)ccn1` [Example 15, 4-[4-(4-Chlorophenylamino)phthalazin-1-yloxymethyl]pyridin-2-yl carboxylic acid amide dihydrochloride], the values for the half-maximal inhibitory concentration (IC50) in assay [1] and in assay [2] were under 0.02 µM and under 0.1 µM, respectively.
Consider `NC(=O)c1cc(COc2nnc(Nc3ccc(Cl)cc3)c3ccccc23)ccn1` [Example 5, 4-[4-(4-Chlorophenylamino)phthalazin-1-yloxymethyl]pyridin-2-yl carboxylic acid amide], for which the 50% inhibitory concentration (IC50) in assay [1] fell in the range of 0.02 to 0.05 µM.
For the molecule `N#CC(c1ccncc1)c1nnc(Nc2ccc3c(c2)CCC3)c2ccccc12` (centres unmarked) [Example 22, 1-(indan-5-ylamino)-4-(4-pyridylcyanomethyl)phthalazine], the IC50 in assay [2] lay within 0.1 to 1 µM.
For `NC(=O)c1cc(Cc2nnc(Nc3ccc(Cl)cc3)c3ccccc23)ccn1` [Example 14, 4-[4-(4-Chlorophenylamino)phthalazin-1-ylmethyl]pyridin-2-yl carboxylic acid amide dimethanesulfonate], the IC50 in assay [1] is 0.02 to 0.05 µM.
`CNC(=O)c1cc(Cc2nnc(Nc3cccc(Br)c3)c3ccccc23)ccn1` [Example 6, 4-[4-(3-Bromophenylamino)phthalazin-1-ylmethyl]-pyridin-2-yl carboxylic acid methylamide]: the results for the IC50 in assay [1] and in assay [2] were under 0.02 µM and under 0.1 µM, respectively.
On the same counts, the results for `NC(=O)c1cc(Cc2nnc(Nc3ccc(Cl)cc3)c3ccccc23)ccn1` [Example 13, 4-[4-(4-Chlorophenylamino)phthalazin-1-ylmethyl]pyridin2-yl carboxylic acid amide dihydrochloride] are 0.02 to 0.05 µM and under 0.1 µM.
For `c1ccc2c(Nc3ccc(Oc4ccncc4)cc3)nnc(Cc3ccncc3)c2c1` [Example 9, 1-[4-(4-pyridyloxy)phenylamino]-4-(4-pyridylmethyl)phthalazine] the same measures were over 0.05 µM and 0.1 to 1 µM.
In assay [2], `c1ccc2c(Nc3ccc4ncsc4c3)nnc(Cc3ccncc3)c2c1` [Example 23, 1-(benzothiazol-6-ylamino)-4-(4-pyridylmethyl)phthalazine] yielded an IC50 of under 0.1 µM.
Regarding `c1ccc2c(Nc3ccc4c(c3)CCC4)nnc(Cc3ccncc3)c2c1` [Example 10, 1-(indan-5-ylamino)-4-(4-pyridylmethyl)phthalazine], the half-inhibitory concentration (IC50) in assay [1] was 0.02 to 0.05 µM; in assay [2] it was under 0.1 µM.
For `NC(=O)c1cc(COc2nnc(Nc3ccc(Cl)cc3)c3ccccc23)ccn1` [Example 16, 4-[4-(4-Chlorophenylamino)phthalazin-1-yloxymethyl]pyridin-2-yl carboxylic acid amide dimethanesulfonate], the 50% inhibitory concentration (IC50) in assay [1] was under 0.02 µM.
